Laboratory results: patent publication US7855165B2, “Herbicide composition for paddy field” (Bayer Cropscience AG, priority 2007, dated 2010)
Like-named read-outs stand apart in the source and are kept apart here.

Legend:
[1] = test system: Monochoria vaginalis Presl; test: Test Example 1: effect of the herbicide composition against paddy field weeds (pot test, green house); type: in vivo; settings: Pontederia vaginalis, 504 h, read-out: Herbicidal effect (%) MOOVP
From the text: (§1) • Component (a) (a-1): compound No. 1 (ref: the aforementioned Table A) • (a-2): compound No. 3 (same as above) • (a-3): compound No. 11 (same as above) • Component (b) the aforementioned (b-1)-(b-15) • Component (c) the aforementioned (c-1)-(c-3) <Preparation of Test Agents> • Carrier: Acetone 5 parts by weight • Surfactant: Benzyloxy polyglycol ether 1 part by weight The above-mentioned carrier and surfactant and 1 part by weight of active compounds (component (a) and component (b) or component (c)) are mixed and the obtained formulations are diluted with water to prepare the test agents of the prescribed chemicals amount (preparations).
(§2) In a green house, seeds or tubers of Monochoria vaginalis Presl, annual broad-leaves (Lindernia procumbens Philcox, Rotala indica Koehne, Elatine triandra Schk, Ammannia multiflora Roxb., etc.), Cyperus serotinus Rottboel, and Sagittaria pygmaea Miq were inoculated to paddy field soil filled in a 500 cm^2 pot and brought to a submerged condition of about 2-3 cm. At 1.5-2 leafstage of each weed prescribed diluted solution of preparation of each active compound and each herbicide in the following table was applied on water surface each singly or simultaneously. After the treatment, the submerged condition of 3 cm was maintained and the herbicidal effect was studied 3 weeks after the treatment. The herbicidal effect was evaluated as 100% in case of complete death and 0% in case of no effect.
(§3) In the tables, MOOVP represents Monochoria vaginalis Presl, BBBBB represents annual broad-leaves, CYPSE represents Cyperus serotinus Rottboel and SAGPY represents Sagittaria pygmaea Miq.

[2] = test system: Cyperus serotinus Rottboel; test: as above; type: in vivo; settings: Cyperus serotinus, 504 h, read-out: Herbicidal effect (%) CYPSE
From the text: as §1, §2, §3

Sagittaria pygmaea Miq = test: as above; type: in vivo; settings: Sagittaria pygmaea, 504 h, read-out: Herbicidal effect (%) SAGPY
From the text: as §1, §2, §3

[3] = as above; type: in vivo, annual broad-leaves; settings: 504 h, read-out: Herbicidal effect (%) BBBBB
From the text: as §2, with “At 1.5-2 leafstage of each weed prescribed diluted solution of preparation of each active compound and each herbicide in the following table was applied on water surface each singly or simultaneously.” left out
as §3

[4] = 50 g/ha single, 3 weeks after treatment
[5] = 100 g/ha single, 3 weeks after treatment
[6] = 75 g/ha single, 3 weeks after treatment
[7] = 150 g/ha single, 3 weeks after treatment
[8] = 300 g/ha single, 3 weeks after treatment
[9] = 600 g/ha single, 3 weeks after treatment
[10] = 200 g/ha single, 3 weeks after treatment
[11] = 400 g/ha single, 3 weeks after treatment
[12] = 2.5 g/ha single, 3 weeks after treatment
[13] = 5 g/ha single, 3 weeks after treatment
[14] = 1.5 g/ha single, 3 weeks after treatment
[15] = 3 g/ha single, 3 weeks after treatment
[16] = 125 g/ha single, 3 weeks after treatment
[17] = 250 g/ha single, 3 weeks after treatment

COc1cnc(OC)n2nc(NS(=O)(=O)c3c(OCC(F)F)cccc3C(F)(F)F)nc12 [(b-5), penoxsulam]
pest or weed control at 50 g/ha [1, 4]: 75%
pest or weed control at 100 g/ha [1, 5]: 90%
pest or weed control at 50 g/ha [2, 4]: 70%
pest or weed control at 100 g/ha [2, 5]: 70%
pest or weed control at 50 g/ha (Sagittaria pygmaea Miq; [4]): 65%
pest or weed control at 100 g/ha (Sagittaria pygmaea Miq; [5]): 85%
pest or weed control at 50 g/ha [3, 4]: 50%
pest or weed control at 100 g/ha [3, 5]: 90%

CS(=O)(=O)c1ccc(C(=O)C2C(=O)CCCC2=O)c(Cl)c1COCC1CCCO1 (centres unmarked) [(b-15), 2-{2-chloro-4-mesyl-3-[(tetrahydrofuran-2-ylmethoxy)-methyl]-benzoyl}-cyclohexan-1,3-dione]
pest or weed control at 75 g/ha [1, 6]: 85%
pest or weed control at 150 g/ha [1, 7]: 95%
pest or weed control at 75 g/ha [2, 6]: 80%
pest or weed control at 150 g/ha [2, 7]: 85%
pest or weed control at 75 g/ha (Sagittaria pygmaea Miq; [6]): 80%
pest or weed control at 150 g/ha (Sagittaria pygmaea Miq; [7]): 80%
pest or weed control at 75 g/ha [3, 6]: 50%
pest or weed control at 150 g/ha [3, 7]: 65%

CN(C(=O)COc1nc2ccccc2s1)c1ccccc1 [(b-9), mefenacet]
pest or weed control at 300 g/ha [1, 8]: 65%
pest or weed control at 600 g/ha [1, 9]: 80%
pest or weed control at 300 g/ha [2, 8]: 30%
pest or weed control at 600 g/ha [2, 9]: 30%
pest or weed control at 300 g/ha (Sagittaria pygmaea Miq; [8]): 10%
pest or weed control at 600 g/ha (Sagittaria pygmaea Miq; [9]): 10%
pest or weed control at 300 g/ha [3, 8]: 30%
pest or weed control at 600 g/ha [3, 9]: 40%

COP(=S)(OC)SCC(=O)N(c1ccc(Cl)cc1)C(C)(C)C [(b-1), anilofos]
pest or weed control at 100 g/ha [1]: 10%
pest or weed control at 200 g/ha [1]: 10%
pest or weed control at 100 g/ha [2]: 0%
pest or weed control at 200 g/ha [2]: 0%
pest or weed control at 100 g/ha (Sagittaria pygmaea Miq): 10%
pest or weed control at 200 g/ha (Sagittaria pygmaea Miq): 10%
pest or weed control at 100 g/ha [3]: 0%
pest or weed control at 200 g/ha [3]: 0%

CC(C)(NC(=O)C(Br)C(C)(C)C)c1ccccc1 (centres unmarked) [(b-14), bromobutide]
pest or weed control at 200 g/ha [1, 10]: 30%
pest or weed control at 400 g/ha [1, 11]: 95%
pest or weed control at 200 g/ha [2, 10]: 40%
pest or weed control at 400 g/ha [2, 11]: 60%
pest or weed control at 200 g/ha (Sagittaria pygmaea Miq; [10]): 10%
pest or weed control at 400 g/ha (Sagittaria pygmaea Miq; [11]): 10%
pest or weed control at 200 g/ha [3]: 20%
pest or weed control at 400 g/ha [3]: 30%

COc1cc(OC)nc(Oc2cccc(Oc3nc(OC)cc(OC)n3)c2C(=O)O)n1 [(b-7), bispyribac-sodium]
pest or weed control at 2.5 g/ha [1, 12]: 0%
pest or weed control at 5 g/ha [1, 13]: 10%
pest or weed control at 2.5 g/ha [2, 12]: 20%
pest or weed control at 5 g/ha [2, 13]: 60%
pest or weed control at 2.5 g/ha (Sagittaria pygmaea Miq; [12]): 0%
pest or weed control at 5 g/ha (Sagittaria pygmaea Miq; [13]): 30%
pest or weed control at 2.5 g/ha [3, 12]: 10%
pest or weed control at 5 g/ha [3, 13]: 10%

CCOc1ccccc1OS(=O)(=O)NC(=O)Nc1nc(OC)cc(OC)n1 [(b-13), ethoxysulfuron]
pest or weed control at 1.5 g/ha [1, 14]: 65%
pest or weed control at 3 g/ha [1, 15]: 70%
pest or weed control at 1.5 g/ha [2, 14]: 0%
pest or weed control at 3 g/ha [2, 15]: 0%
pest or weed control at 1.5 g/ha (Sagittaria pygmaea Miq; [14]): 65%
pest or weed control at 3 g/ha (Sagittaria pygmaea Miq; [15]): 65%
pest or weed control at 1.5 g/ha [3, 14]: 40%
pest or weed control at 3 g/ha [3, 15]: 70%

CCCCOC(=O)[C@@H](C)Oc1ccc(Oc2ccc(C#N)cc2F)cc1 [(b-4), cyhalofop-butyl]
pest or weed control at 90 g/ha [1]: 0%
pest or weed control at 180 g/ha [1]: 10%
pest or weed control at 90 g/ha [2]: 0%
pest or weed control at 180 g/ha [2]: 0%
pest or weed control at 90 g/ha (Sagittaria pygmaea Miq): 10%
pest or weed control at 180 g/ha (Sagittaria pygmaea Miq): 20%
pest or weed control at 90 g/ha [3]: 0%
pest or weed control at 180 g/ha [3]: 0%

CCCOCCN(C(=O)CCl)c1c(CC)cccc1CC [(b-2), pretilachlor]
pest or weed control at 125 g/ha [1, 16]: 10%
pest or weed control at 250 g/ha [1, 17]: 20%
pest or weed control at 125 g/ha [2, 16]: 0%
pest or weed control at 250 g/ha [2, 17]: 0%
pest or weed control at 125 g/ha (Sagittaria pygmaea Miq; [16]): 0%
pest or weed control at 250 g/ha (Sagittaria pygmaea Miq; [17]): 10%
pest or weed control at 125 g/ha [3, 16]: 10%
pest or weed control at 250 g/ha [3, 17]: 10%

CCS(=O)(=O)Oc1ccc2c(c1)C(C)(C)CO2 [(b-11), benfuresate]
pest or weed control at 125 g/ha [1]: 0%
pest or weed control at 250 g/ha [1]: 0%
pest or weed control at 125 g/ha [2]: 20%
pest or weed control at 250 g/ha [2]: 70%
pest or weed control at 125 g/ha (Sagittaria pygmaea Miq): 10%
pest or weed control at 250 g/ha (Sagittaria pygmaea Miq): 20%
pest or weed control at 125 g/ha [3]: 0%
pest or weed control at 250 g/ha [3]: 0%
